The target of this experiment is T1, PRL3 (Homo sapiens, UniProt O75365).
T1 construct: gene PTP4A3; residues 1-169 in pET15b, His6 tag with thrombin site, N-terminal Gly-Ser-His extension left; wild type; expressed in E. coli
In words: phosphorylation of catalytic Cys104 followed on Phos-tag SDS-PAGE. Conditions: no magnesium; 43 µM PRL3, 20 mM HEPES, 100 mM NaCl, 10 mM DTT, pH 7.0; 30 °C and room temperature; estimate from concentration dependence; covalent phosphocysteine formed. The experiment is classed as biochemical.

Some results are limits rather than exact numbers.

T1 sequence (O75365 1-169): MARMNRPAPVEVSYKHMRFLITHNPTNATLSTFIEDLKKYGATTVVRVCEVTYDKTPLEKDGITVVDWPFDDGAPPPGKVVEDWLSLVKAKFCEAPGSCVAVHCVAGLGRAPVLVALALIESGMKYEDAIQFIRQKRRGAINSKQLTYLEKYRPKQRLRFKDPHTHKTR

As for `Nc1ncnc2c1ncn2[C@@H]1O[C@H](COP(=O)(O)OP(=O)(O)OP(=O)(O)O)[C@@H](O)[C@H]1O` [ATP], the Michaelis constant (Km) is more than 2000 µM.

For orientation: Km means the substrate concentration at which the rate is half of its maximum.

These data come from PMC5427921, “PRL3 phosphatase active site is required for binding the putative magnesium transporter CNNM3” (Scientific Reports, 2017).
